Data: US10912760B1, “Method of inhibiting cancer metastasis” (Chung Shan Medical University, priority 2019, dated 2021)

Columns and labels:
DLD-1 cells = test: Ex vivo xenograft mice model: pretreated DLD-1 cells injected into spleen and peritoneal site; type: in vivo, Balb/c nude mice
Protocol: Luciferase expressing DLD-1 cells were pretreated with or without 30 μM Camphorataimide B for 24 hours, and then injected into the abdomen and spleen of Balb/c nude mice (five mice for each group), 35 days after implantation, the representative ex vivo images for liver and abdominal metastasis burden in xenografted animals were monitored using bioluminescent imaging (BLI).
FIG. 2B: Quantitation of results of FIG. 2A. Luciferase expressing DLD-1 cells were pretreated with or without 30 μM Camphorataimide B for 24 hours, and then injected into the abdomen and spleen of Balb/c nude mice. After 35 days implantation, the mice were photographed and tumor metastatic capability was analyzed. * and ** represented P<0.01 and P<0.001 as compared to untreated group, respectively.
FIG. 2C: Camphorataimide B suppressed hepatic and abdominal metastasis of DLD-1 cells in ex vivo xenograft mice model. DLD-1 cells were pretreated with or without 30 μM Camphorataimide B for 24 hours, and then spleeny and intraperitoneally injected into Balb/c mice, respectively. After 35 days, the mice were sacrificed and the tissues were obtained and photographed.
FIG. 2D: Quantitation of results of FIG. 2C. DLD-1 cells were pretreated with or without 30 μM Camphorataimide B for 24 hours, and then spleeny and intraperitoneally injected into Balb/c mice, respectively. After 35 days, the mice were sacrificed and photographed. Total weight of tumor foci from the metastatic tissues were presented and quantitated. *, P<0.01 and P<0.001 between the indicated groups.
FIG. 2E: Camphorataimide B suppressed metastasis in ex vivo xenograft mice model. […]
(§1) Male Balb/c nude mice aged four weeks were purchased from National Laboratory Animal Center of Taiwan (Taipei City, Taiwan) and maintained under supervision of the Institutional Animal Care and Use Committee at Chung Shan Medical University. […] The liver metastasis burden was monitored weekly by bioluminescence imaging (BLI). […]

[1] = tested on: colon cancer cells (DLD-1, SW480 and SW620); test: Cell invasion assay (Matrigel coated transwell); type: cell-based, human
Protocol: (§2) FIG. 1A: Effect of Camphorataimide B on migration and invasion of colon cancer cells. For migration assay, three colon cancer cells (DLD-1, SW480 and SW620) were pretreated with the indicated concentrations of Camphoratamide B for 24 hours, seeded onto transwell inserts, and then incubated for 12 hours. For invasion assay, the three colon cancer cells were pretreated with the indicated concentrations of Camphorataimide B for 24 hours, seeded onto Matrigel coated transwell inserts, and then incubated for 16 hours. After the treatments, numbers of cell on the lower surface membrane were stained, photographed and counted for quantitation of migrated and invaded cells.
(§3) FIG. 1B: Quantitation of effect of Camphorataimide B on migration and invasion of colon cancer cells. Quantitative results were presented as means±SD. Three independent experiments were performed for statistical analysis. * and ** represented P<0.01 and P<0.001 as compared to control, respectively.
(§4) Cells were pretreated with Camphorataimide B for 24 hours, harvested and then seeded on to 24-well cell culture inserts (8 μm pore size, Millipore). […] The stained cells were photographed and quantified form five random fields under microscopic examination. […] Cells invaded into the lower surface of the insert were quantitated as described earlier.

[2] = tested on: Luciferase expressing DLD-1 cells; test: In vivo xenograft mice model: oral treatment after Luc-DLD-1 injection; set-up: species or system Balb/c nude mice
Protocol: Luciferase expressing DLD-1 cells were suspended in phosphate buffered saline and injected into the spleen and peritoneal site of 5-week-old male Balb/c nude mice, respectively. After one week, the mice were orally administrated with 10 or 20 mg/kg Camphorataimide B or saline vehicle for one month (five mice for each group). IVIS luciferase in vivo images of liver and abdominal metastasis burden were monitored using bioluminescent imaging (BLI). Data represented mean±SD. * and ** represented P<0.01 and P<0.001 between the indicated groups, respectively.
FIG. 2G: Camphorataimide B suppressed hepatic and abdominal metastasis of DLD-1 cells in in vivo xenograft mice model. Luciferase expressing DLD-1 cells were suspended in phosphate buffered saline and injected into the spleen and peritoneal site of Balb/c nude mice, respectively. After one week, the mice were orally administrated with 10 or 20 mg/kg Camphorataimide B or saline vehicle (five mice for each group). After one month, the mice were sacrificed and the tissues were obtained and photographed.
FIG. 2H: Quantitation of results of FIG. 2G. Luciferase expressing DLD-1 cells were suspended in phosphate buffered saline and injected into the spleen and peritoneal site of Balb/c nude mice, respectively. After one week, the mice were orally administrated with 10 or 20 mg/kg Camphorataimide B or saline vehicle (five mice for each group). After 35 days, the mice were sacrificed and photographed. Total weight of tumor foci from the metastatic tissues were presented and quantitated. * and ** represented P<0.01 and P<0.001 between the indicated groups, respectively.
as §1

[3] = tested on: colon cancer cells (DLD-1, SW480 and SW620); test: Cell adhesion assay; type: cell-based, human; settings: pretreated 24 hours, Matrigel coated plates, 8 hours
Protocol: FIG. 1C: Effect of Camphorataimide B on adhesion of colon cancer cells. The three colon cancer cells were pretreated with the indicated concentrations of Camphorataimide B for 24 hours, seeded on a matrix coated monolayer dish, and then incubated for 8 hours. After washing with PBS, the attached cells were photographed and quantitated.
FIG. 1D: Quantitation of effect of Camphorataimide B on adhesion of colon cancer cells. Quantitative results were presented as means±SD. Three independent experiments were performed for statistical analysis. * and ** represented P<0.01 and P<0.001 as compared to control, respectively.
Cells were incubated with serial concentration of Camphorataimide B in a complete medium for 24 hours, transferred in to 12-well Matrigel coated plates (10^5 cells per well), and incubated at 37° C. for 8 hours. After the incubation, non-adherent cells were removed by PBS washing and the attached cells were photographed and quantitated using a cell counter.

breast cancer cells = settings: reported; cited from earlier work
[4] = tested on: colon cancer cells (DLD-1, SW480 and SW620); test: Soft agar colony formation assay; type: cell-based, human; settings: 1 week
Protocol: FIG. 1E: Effect of Camphorataimide B on colony formation of colon cancer cells. The three colon cancer cells were pretreated with indicated concentration of Camphorataimide B for 24 hours, seeded on soft agar plates, and then incubated for one week. After the treatments, the number of colonies was quantitated. Quantitative results were presented as means±SD. Three independent experiments were performed for statistical analysis. * and ** represented P<0.01 and P<0.001 as compared to control, respectively.
Cells suspended in agarose medium (10% FBS and 0.3 agarose in medium) containing serial concentrations of Camphorataimide Bwere plated onto 6-well plate which was pre-coated with a layer of solidified agarose (10% FBS and 0.6% agarose in medium), and then incubated at 37° C. in a humidified atmosphere containing 5% CO2 for 1 week. At the end of incubation, cell colonies were fixed, stained with crystal violet, and then photographed using Nikon Eclipse TE2000-U microscope equipped with a Nikon Digital Camera DXM1200 and those colonies with size greater than 0.1 mm were counted.

[5] = tested on: F-actin in colon cancer cells (DLD-1, SW480 and SW620); test: Immunofluorescence (phalloidin) staining of F-actin cytoskeleton; type: cell-based, human; settings: confocal microscope, compared to control
Protocol: FIG. 1F: Effect of Camphorataimide B on cytoskeleton structure of colon cancer cells. The treated cells were seeded on a matrix-coated dish, and then F-actin (red) was detected by immunofluorescence staining, while the nuclei (blue) were detected by DAPI staining. Fluorescent images were acquired by using confocal microscopy. Scale bars, […].
Adherent cells were fixed on the glass slides using 4% ice-cold formaldehyde and reacted with blocking buffer and 0.5% Triton X-100 for 1 hour at room temperature. The reacted cells were incubated with primary antibodies overnight at 4° C. The bound primary antibodies were detected using Alexa Fluor-labeled secondary antibody (Jackson ImmunoResearch Laboratories, West Grove, Pa., USA). Alexa Fluor-conjugated phalloidin (Cell Signaling) was used for detection of polymerized F-actin microfilaments. Fluorescence image was acquired by using a laser scanning confocal microscope system (Zeiss 510 meta, Zeiss, Oberkochen, Germany).

[6] = tested on: colon cancer cells (DLD-1, SW480 and SW620); test: Cell migration assay (transwell); type: cell-based, human
Protocol: as §2, §3, §4

[7] = 20 and 30 μM, P<0.01 as compared to control

SMILES: CC(C)=CCOc1ccc(C2=C(CC(C)C)C(=O)NC2=O)cc1 [Camphorataimide B]
- attachment to colon tissue, number and size of tumors (DLD-1 cells; DLD-1 cells pretreated with 30 μM for 24 hours, after 35 days): rarely attached to colon tissue and formed fewer number and smaller size of tumors
- hepatic and abdominal metastatic lesion (hematoxylin and eosin staining) (DLD-1 cells; DLD-1 cells pretreated with 30 μM for 24 hours, day 35, compared to untreated cells): significantly diminished
- liver and abdominal metastasis burden (bioluminescent imaging) (DLD-1 cells; Luc-DLD-1 cells pretreated with 30 μM for 24 hours, 35 days after implantation): suppressed liver and abdominal metastasis
- inhibition of invasiveness [1, 7]: significant
- invasiveness of colon cancer cells ([1]; pretreated 24 hours, indicated concentrations, Matrigel transwell 16 hours): dose-dependently inhibited
- tumor size by bioluminescent imaging ([2]; oral 10 and 20 mg/kg every three days for 1 month): smaller tumors than tumor group
- tumor growth and metastatic ability ([2]; oral 10 and 20 mg/kg every three days for 1 month, versus untreated tumors): grew slowly and less metastatic ability than untreated tumors
- increased gross weight of tumor ([2]; oral 10 and 20 mg/kg every three days, after 35 days): notably inhibited
- adherent cell numbers [3]: significantly reduced
- tumor growth in breast cancer cells (breast cancer cells): can inhibit tumor growth
- colony numbers [4]: significantly reduced
- regular architecture and expression level of F-actin [5]: disrupted and decreased
- inhibition of migration [6, 7]: significant
- migration of colon cancer cells ([6]; pretreated 24 hours, indicated concentrations, transwell 12 hours): dose-dependently inhibited
